Assay [1] addresses T1, human recombinant glucocorticoid receptor (Homo sapiens, UniProt P04150).
T1 construct: This GR was a full-length steroid hormone receptor; host or cells: baculovirus-infected insect cells
T1 sequence (P04150 1-777): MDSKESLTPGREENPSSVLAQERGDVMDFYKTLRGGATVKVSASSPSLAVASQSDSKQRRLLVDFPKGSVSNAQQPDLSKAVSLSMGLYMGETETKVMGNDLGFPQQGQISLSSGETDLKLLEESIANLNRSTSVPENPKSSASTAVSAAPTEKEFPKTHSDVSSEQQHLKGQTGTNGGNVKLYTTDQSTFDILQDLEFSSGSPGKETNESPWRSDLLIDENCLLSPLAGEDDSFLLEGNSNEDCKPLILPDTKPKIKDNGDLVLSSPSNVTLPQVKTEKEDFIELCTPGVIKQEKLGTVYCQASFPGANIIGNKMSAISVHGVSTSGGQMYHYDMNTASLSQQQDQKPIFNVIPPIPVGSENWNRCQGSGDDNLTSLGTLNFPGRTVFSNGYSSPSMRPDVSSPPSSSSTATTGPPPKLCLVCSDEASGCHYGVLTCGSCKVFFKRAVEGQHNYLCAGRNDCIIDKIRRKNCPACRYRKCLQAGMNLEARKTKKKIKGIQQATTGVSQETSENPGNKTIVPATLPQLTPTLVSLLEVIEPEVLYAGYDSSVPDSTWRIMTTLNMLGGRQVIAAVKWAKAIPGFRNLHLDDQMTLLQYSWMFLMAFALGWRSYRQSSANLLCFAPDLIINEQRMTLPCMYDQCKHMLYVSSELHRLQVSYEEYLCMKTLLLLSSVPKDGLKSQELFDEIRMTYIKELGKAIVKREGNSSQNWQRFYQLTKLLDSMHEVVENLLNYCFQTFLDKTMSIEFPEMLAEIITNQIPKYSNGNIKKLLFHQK
The experiment in a line: Glucocorticoid receptor binding displacement assay with 3H-dexamethasone (Example 22). To be noted: Examples 1-15: 3H-dexamethasone displacement assay of Example 22; read-out: GR binding Ki. The method, then:
Binding protocol: Compounds were tested in a binding displacement assay using human recombinant glucocorticoid receptor with ^3H-dexamethasone as the ligand. The source of the receptor was recombinant baculovirus-infected insect cells. This GR was a full-length steroid hormone receptor likely to be associated with heat-shock and other endogenous proteins.
For the IC50 determinations, test compounds were tested at 6 concentrations in duplicate. Test compounds were diluted from 10 mM stock in 100% DMSO. The tested solutions were prepared at 2× final assay concentration in 2% DMSO/assay buffer.
All reagents and the assay plate were kept on ice during the addition of reagents. The reagents were added to wells of a v-bottomed polypropylene plate in the following order: 25 μl of 10 nM 3H-dexamethasone solution, 50 μl of TB/NSB/compound solution and 25 μl of 2 nM GR solution. After the additions, the incubation mixture was mixed and incubated for 2.5 hrs at 4° C.
After 2.5 hrs incubation, unbound counts were removed with dextran coated charcoal (DCC) as follows: 15 μl of DCC solution (10% DCC in assay buffer) was added to all wells and mixed (total volume 115 μl). The plate was centrifuged at 4000 rpm for 10 minutes at 4° C. 75 μl of the supernatants was carefully pipetted into an optiplate. 150 μl of scintillation cocktail were added (Microscint-40, Perkin Elmer). The plate was vigorously shaken for approximately 10 minutes and counted on a Topcount.
The IC50 values were converted to Ki (the inhibition constant) using the Cheng-Prusoff equation.
Reagents: Assay buffer: 10 mM potassium phosphate buffer pH 7.6 containing 5 mM DTT, 10 mM sodium molybdate, 100 μM EDTA and 0.1% BSA.

For assay [2], the target named is T2, glucocorticoid receptors (GR) in SW1353/MMTV-5 cells (Homo sapiens, UniProt P04150).
T2 construct: contains endogenous glucocorticoid receptors; endogenous in cells; host or cells: SW1353/MMTV-5 (human chondrosarcoma, stably transfected with pMAMneo-Luc reporter only)
T2 sequence (P04150 1-777): T1 sequence (P04150 1-777)
The experiment in a line: GR reporter gene assay using SW1353/MMTV-5 cells (Example 24). The class given is cell-based. The method, then: SW1353/MMTV-5 is an adherent human chondrosarcoma cell line that contains endogenous glucocorticoid receptors. It was transfected with a plasmid (pMAMneo-Luc) encoding firefly luciferase located behind a glucocorticoid-responsive element (GRE) derived from a viral promoter (long terminal repeat of mouse mammary tumor virus). A stable cell line SW1353/MMTV-5 was selected with geneticin, which was required to maintain this plasmid.
SW1353/MMTV-5 cells were distributed in 96-well plates and incubated in medium (without geneticin) for 24 hrs.
In general terms: A reporter such as luciferase makes a cellular process visible.

In US20130225633A1, “PHENYL HETEROCYCLOALKYL GLUCOCORTICOID RECEPTOR MODULATORS” (Corcept Therapeutics, Inc., priority 2012, published 2013) one finds Ki data, which are given here for 15 compounds.

A word on the Ki: it is the equilibrium dissociation constant of an inhibitor or competing ligand from its target.

`O=S(=O)(c1cccc(N2CC[C@@H](F)C2)c1)N1CCC2=Cc3c(cnn3-c3ccc(F)cc3)C[C@]2(COCC2CC2)C1` [Example 1, (R)-4a-Cyclopropylmethoxymethyl-1-(4-fluorophenyl)-6-[3-((R)-3-fluoropyrrolidin-1-yl)-benzenesulfonyl]-4,4a,5,6,7,8-hexahydro-1H-1,2,6-triaza-cyclopenta[b]naphthalene]: the figures for the Ki in assay [1] and in assay [2] were at least 1 nM and below 10 nM, respectively.

In the case of `O=S(=O)(c1cccc(N2CC[C@H](F)C2)c1)N1CCC2=Cc3c(cnn3-c3ccc(F)cc3)C[C@]2(COCC2CC2)C1` [Example 2, (R)-4a-Cyclopropylmethoxymethyl-1-(4-fluorophenyl)-6-[3-((S)-3-fluoropyrrolidin-1-yl)-phenyl-3-sulfonyl]-4,4a,5,6,7,8-hexahydro-1H-1,2,6-triaza-cyclopenta[b]naphthalene], the Ki in assay [1] is 0.5 to 1 nM; in assay [2], below 10 nM.

Take `O=S(=O)(c1cccc(N2CCCC2)c1)N1CCC2=Cc3c(cnn3-c3ccc(F)cc3)C[C@]2(COCC2CC2)C1` [Example 3, (R)-4a-Cyclopropylmethoxymethyl-1-(4-fluorophenyl)-6-[3-(pyrrolidin-1-yl)-benzenesulfonyl]-4,4a,5,6,7,8-hexahydro-1H-1,2,6-triaza-cyclopenta[b]naphthalene]: the Ki is at least 1 nM in assay [1] and below 10 nM in assay [2].

Regarding `COC[C@]12Cc3cnn(-c4ccc(F)cc4)c3C=C1CCN(S(=O)(=O)c1cccc(N3CC[C@@H](F)C3)c1)C2` [Example 4, (R)-1-(4-Fluorophenyl)-6-[3-((R)-3-fluoropyrrolidin-1-yl)-benzenesulfonyl]-4a-methoxymethyl-4,4a,5,6,7,8-hexahydro-1H-1,2,6-triaza-cyclopenta[b]naphthalene], the values for the Ki in assay [1] and in assay [2] were at least 1 nM and 10 to 20 nM, respectively.

As for `COC[C@]12Cc3cnn(-c4ccc(F)cc4)c3C=C1CCN(S(=O)(=O)c1cccc(N3CC[C@H](F)C3)c1)C2` [Example 5, (R)-1-(4-Fluorophenyl)-6-[3-((S)-3-fluoropyrrolidin-1-yl)-benzenesulfonyl]-4a-methoxymethyl-4,4a,5,6,7,8-hexahydro-1H-1,2,6-triaza-cyclopenta[b]naphthalene], the Ki in assay [1] was 0.5 to 1 nM; in assay [2], below 10 nM.

With `COC[C@]12Cc3cnn(-c4ccc(F)cc4)c3C=C1CCN(S(=O)(=O)c1cccc(N3CCCC3)c1)C2` [Example 6, (R)-1-(4-Fluoro-phenyl)-4a-methoxymethyl-6-[3-(pyrrolidin-1-yl)-benzenesulfonyl)-4,4a,5,6,7,8-hexahydro-1H-1,2,6-triaza-cyclopenta[b]naphthalene], the inhibitory constant (Ki) in assay [1] lay in the range of 0.5 to 1 nM; in assay [2], 10 to 20 nM.

As to `O=S(=O)(c1ccc(N2CC[C@@H](F)C2)cc1)N1CCC2=Cc3c(cnn3-c3ccc(F)cc3)C[C@]2(COCC2CC2)C1` [Example 7, (R)-4a-Cyclopropylmethoxymethyl-1-(4-fluoro-phenyl)-6-[4-((R)-3-fluoro-pyrrolidin-1-yl)-benzenesulfonyl]-4,4a,5,6,7,8-hexahydro-1H-1,2,6-triaza-cyclopenta[b]naphthalene], the results for the Ki in assay [1] and in assay [2] were below 0.5 nM and below 10 nM, respectively.

On to `O=S(=O)(c1ccc(N2CCCC2)cc1)N1CCC2=Cc3c(cnn3-c3ccc(F)cc3)C[C@]2(COCC2CC2)C1` [Example 8, (R)-4a-Cyclopropylmethoxymethyl-1-(4-fluoro-phenyl)-6-[4-(pyrrolidin-1-yl)-benzenesulfonyl]-4,4a,5,6,7,8-hexahydro-1H-1,2,6-triaza-cyclopenta[b]naphthalene], for which the inhibitory constant (Ki) in assay [1] is at least 1 nM; in assay [2], below 10 nM.

For the compound `COC[C@]12Cc3cnn(-c4ccc(F)cc4)c3C=C1CCN(S(=O)(=O)c1ccc(N3CC[C@@H](F)C3)cc1)C2` [Example 9, (R)-1-(4-Fluoro-phenyl)-6-[4-((R)-3-fluoro-pyrrolidin-1-yl)-benzenesulfonyl]-4a-methoxymethyl-4,4a,5,6,7,8-hexahydro-1H-1,2,6-triaza-cyclopenta[b]naphthalene], the Ki is 0.5 to 1 nM in assay [1] and 10 to 20 nM in assay [2].

On to `COC[C@]12Cc3cnn(-c4ccc(F)cc4)c3C=C1CCN(S(=O)(=O)c1ccc(N3CCCC3)cc1)C2` [Example 10, (R)-1-(4-Fluoro-phenyl)-6-[4-(pyrrolidin-1-yl)-benzenesulfonyl]-4a-methoxymethyl-4,4a,5,6,7,8-hexahydro-1H-1,2,6-triaza-cyclopenta[b]naphthalene], for which the Ki in assay [1] was 0.5 to 1 nM; in assay [2], above 20 nM.

For `CCOC(=O)[C@]12Cc3cnn(-c4ccc(F)cc4)c3C=C1CCN(S(=O)(=O)c1cccc(N3CC[C@@H](F)C3)c1)C2` [Example 11, (R)-1-(4-Fluoro-phenyl)-6-[3-((R)-3-fluoro-pyrrolidin-1-yl)-benzenesulfonyl]-1,4,5,6,7,8-hexahydro-1,2,6-triaza-cyclopenta[b]naphthalene-4a-carboxylic acid ethyl ester], the inhibition constant Ki in assay [1] was in the range of 0.5 to 1 nM; in assay [2], 10 to 20 nM.

Consider `COC(=O)[C@]12Cc3cnn(-c4ccc(F)cc4)c3C=C1CCN(S(=O)(=O)c1cccc(N3CC[C@@H](F)C3)c1)C2` [Example 12, (R)-1-(4-Fluoro-phenyl)-6-[3-((R)-3-fluoro-pyrrolidin-1-yl)-benzenesulfonyl]-1,4,5,6,7,8-hexahydro-1,2,6-triaza-cyclopenta[b]naphthalene-4a-carboxylic acid methyl ester], for which the inhibition constant (Ki) in assay [1] is at least 1 nM; in assay [2], above 20 nM.

In the case of `O=C(OCF)[C@]12Cc3cnn(-c4ccc(F)cc4)c3C=C1CCN(S(=O)(=O)c1cccc(N3CC[C@@H](F)C3)c1)C2` [Example 13, (R)-1-(4-Fluoro-phenyl)-6-[3-((R)-3-fluoro-pyrrolidin-1-yl)-benzenesulfonyl]-1,4,5,6,7,8-hexahydro-1,2,6-triaza-cyclopenta[b]naphthalene-4a-carboxylic acid fluoromethyl ester], the Ki was 0.5 to 1 nM in assay [1] and above 20 nM in assay [2].

Turning to `CCOC(=O)[C@]12Cc3cnn(-c4ccc(F)cc4)c3C=C1CCN(S(=O)(=O)c1cccc(N3CCCC3)c1)C2` [Example 14, (R)-1-(4-Fluoro-phenyl)-6-[3-(pyrrolidin-1-yl)-benzenesulfonyl]-1,4,5,6,7,8-hexahydro-1,2,6-triaza-cyclopenta[b]naphthalene-4a-carboxylic acid ethyl ester], the inhibition constant Ki in assay [1] was in the range of 0.5 to 1 nM; in assay [2], 10 to 20 nM.

Consider `O=C(OCF)[C@]12Cc3cnn(-c4ccc(F)cc4)c3C=C1CCN(S(=O)(=O)c1cccc(N3CCCC3)c1)C2` [Example 15, (R)-1-(4-Fluoro-phenyl)-6-[3-(pyrrolidin-1-yl)-benzenesulfonyl]-1,4,5,6,7,8-hexahydro-1,2,6-triaza-cyclopenta[b]naphthalene-4a-carboxylic acid fluoromethyl ester], for which the inhibitory constant (Ki) is 0.5 to 1 nM in assay [1] and above 20 nM in assay [2].
